Laboratory results taken from ChEMBL document CHEMBL1955738, “Synthesis and antitumor activity of 5,6-dihydro-17-hydroxy icogenin analogs” (Eur J Med Chem, 2012).
pIC50: −log10 of the molar value.

Legend:
Assay type in all cases: functional, cell-based
HL-60 = test: Cytotoxicity against human HL60 cells
A549 = test: Cytotoxicity against human A549 cells by MTT assay
HeLa = test: Cytotoxicity against human HeLa cells by MTT assay
BGC-823 = test: Cytotoxicity against human BGC823 cells by MTT assay
KB = test: Cytotoxicity against human KB cells by MTT assay
HCT-8 = test: Cytotoxicity against human HCT8 cells by MTT assay
Bel-7402 = test: Cytotoxicity against human Bel7402 cells by MTT assay
A2780 = test: Cytotoxicity against human A2780 cells by MTT assay

Row | SMILES | IC50 (HL-60) [µg/mL] | pIC50 (A549) | pIC50 (HeLa) | pIC50 (BGC-823) | pIC50 (KB) | pIC50 (HCT-8) | pIC50 (Bel-7402) | pIC50 (A2780) | pIC50 (HL-60)
1 | C[C@@H](CC[C@@]1(O)O[C@H]2C[C@H]3[C@@H]4CC[C@@H]5C[C@@H](O[C@@H]6O[C@H](CO)[C@H](O)[C@H](O)[C@H]6O[C@@H]6O[C@H](CO)[C@@H](O)[C@H](O)[C@H]6O)CC[C@]5(C)[C@H]4CC[C@]3(C)[C@H]2[C@@H]1C)CO[C@@H]1O[C@H](CO)[C@@H](O)[C@H](O)[C@H]1O [TIMOSAPONIN BII] | 15.5 | – | – | – | – | – | – | – | –
2 | CO[C@]1(CC[C@@H](C)CO)O[C@H]2C[C@H]3[C@@H]4CCC5C[C@@H](O)CC[C@]5(C)[C@H]4CC[C@]3(C)[C@@]2(O)[C@@H]1C (some centres not stated) | – | < 5.00 | < 5.00 | < 5.00 | < 5.00 | < 5.00 | < 5.00 | < 5.00 | –
3 | CO[C@]1(CC[C@H](C)CO)O[C@H]2C[C@H]3[C@@H]4CC=C5C[C@@H](O[C@@H]6O[C@H](CO)[C@@H](O)[C@H](O[C@@H]7O[C@H](CO)[C@@H](O)[C@H](O)[C@H]7O)[C@H]6O[C@@H]6O[C@@H](C)[C@H](O)[C@@H](O)[C@H]6O)CC[C@]5(C)[C@H]4CC[C@]3(C)[C@H]2[C@@H]1C [ICOGENIN] | – | – | – | – | – | – | – | – | 5.59
4 | CO[C@]1(CC[C@@H](C)CO)O[C@H]2C[C@H]3[C@@H]4CCC5C[C@@H](O[C@H]6O[C@H](CO)[C@@H](O)[C@H](O)[C@H]6O[C@@H]6O[C@@H](C)[C@H](O)[C@@H](O)[C@H]6O)CC[C@]5(C)[C@H]4CC[C@]3(C)[C@@]2(O)[C@@H]1C (some centres not stated) | – | 5.43 | 5.11 | 5.37 | 5.22 | 5.47 | 5.08 | 5.10 | –
5 | C[C@@H]1CC[C@@]2(OC1)O[C@H]1C[C@H]3[C@@H]4CC=C5C[C@@H](O[C@@H]6O[C@H](CO)[C@@H](O[C@@H]7O[C@@H](C)[C@H](O)[C@@H](O)[C@H]7O)[C@H](O)[C@H]6O[C@@H]6O[C@@H](C)[C@H](O)[C@@H](O)[C@H]6O)CC[C@]5(C)[C@H]4CC[C@]3(C)[C@H]1[C@@H]2C [DIOSCIN] | – | 6.09 | 6.30 | 5.97 | 6.28 | 6.47 | 6.09 | 6.06 | –
6 | CO[C@]1(CC[C@@H](C)CO)O[C@H]2C[C@H]3[C@@H]4CCC5C[C@@H](O[C@@H]6O[C@H](CO)[C@@H](O)[C@H](O)[C@H]6O)CC[C@]5(C)[C@H]4CC[C@]3(C)[C@@]2(O)[C@@H]1C (some centres not stated) | – | < 5.00 | < 5.00 | < 5.00 | < 5.00 | < 5.00 | < 5.00 | < 5.00 | –
7 | CO[C@]1(CC[C@@H](C)CO)O[C@H]2C[C@H]3[C@@H]4CCC5C[C@@H](O[C@H]6O[C@H](CO)[C@@H](O[C@@H]7O[C@H](CO)[C@@H](O)[C@H](O)[C@H]7O)[C@H](O)[C@H]6O[C@@H]6O[C@@H](C)[C@H](O)[C@@H](O)[C@H]6O)CC[C@]5(C)[C@H]4CC[C@]3(C)[C@@]2(O)[C@@H]1C (some centres not stated) | – | 5.72 | 5.08 | 5.10 | 5.28 | 5.22 | 5.01 | 5.09 | –
